Tests used:
Aspc-1 = assay: Cell killing, Aspc-1; assay type: cell-based, human; parameters: key: Sensitive; Resistant; settings: Aspc-1, PANC Ca
Experimental: (§1) Briefly described, 2-3×10^3 cells/well in 100 μL of culture medium may be plated in 96 well plates and incubated overnight at 37° C., 5% CO2. The MET-ADCs, MET antibody(ies), control MMAE or control hIgG4 conjugated to MMAE with cysteine conjugation antibody(ies) may be diluted 1:3 in serum-free culture medium starting from 100 nM (final) in 50 μL as 3× concentrations to the HT-29 cells. At the end of an additional 5-6 days of cell growth at 37° C. in a humidified incubator with 5% CO2, the plates may be equilibrated to room temperature for 30 minutes and 100 μL/well of CellTiter-Glo® reagent (Promega Corp., Fitchburg, Wis.) may then be added to assess cell viability. Cell viability may be determined by measuring luminescence.
(§2) Various tumor cell lines and normal human cells may be tested for MET-ADC induced cell killing activity essentially as described above in Example 10 as assessed for MET receptor density. MET cell surface density was determined by indirect immunofluorescence staining of cell surface antigens on cultured cells using QIFIKIT (Dako). […] Following a forty-five minute incubation, cells may be incubated for 1 hour on ice with FITC conjugated antibody diluted 1:50 in FACS buffer. Then cells may be washed and receptor numbers may be determined by indirect immunofluorescence staining of the QIFIKIT beads using a Becton Dickinson LSRII flow cytometer.

LS411N = assay: Cell killing, LS411N; assay type: cell-based, human; parameters: key to Sensitive/ Resistant: Sensitive; Resistant
Experimental: as §1, §2

Caco-2 = assay: Cell killing, Caco-2; assay type: cell-based, human; parameters: key: Sensitive; Resistant; settings: Caco-2, Colorectal Ca
Experimental: as §1, §2

H441 = assay: Cell killing, H441; assay type: cell-based, human; parameters: key: Sensitive; Resistant; settings: H441, NSCLC
Experimental: as §1, §2

Cal27 = assay: Cell killing, Cal27; assay type: cell-based, human; parameters: key: Sensitive; Resistant; settings: Cal27, head and neck cancer
Experimental: as §1, §2

RPTEC = assay: Cell killing, non-tumor RPTEC; assay type: cell-based, human; parameters: key: Sensitive; Resistant; settings: renal proximal tubul cell
Experimental: as §1, §2

[1] = test system: HT-29 colon cancer tumor xenografts; assay: HT-29 mouse xenograft model; assay type: in vivo; settings: 1 mg/kg x3 Q7D
Experimental: (§3) Female athymic nude mice age 6- to 7-weeks old are available commercially, including from Harlan Laboratories (Indianapolis, Ind.). The mice are allowed to acclimate for one week and fed ad libitum on a normal low fat (4.5%) diet, which may be continued for the duration of the study. Tumor cells may be purchased from ATCC and may be cultured in cell culture media such as RPMI 1640 (Life Technologies) with L-glutamine, 25 mM HEPES supplemented with 10% FBS and 1 mM Na Pyruvate. Cells may be detached, washed with serum free medium and then resuspended at a final concentration of 50×10^6 cells/mL in serum free RPMI 1640. Tumor cells, approximately 5×10^6, may be injected subcutaneously in the rear flank of subject mice in a 1:1 mixture of serum free growth medium and Matrigel (Becton Dickinson, Bedford, Mass.). Tumor and body weight measurements may be performed twice weekly. Prior to treatment, mice can be randomized based on tumor size using a randomization algorithm. Treatments may be started when the average tumor volume reaches 100 mm^3. […]
MET-ADCs and control hIgG4-MMAE may be prepared in Phosphate Buffered Saline (PBS) prior to dose. Tumor size may be determined by caliper measurements. […] Tumor volume data can be transformed to a log scale to equalize variance across time and treatment groups. Log volume data can be analyzed with two-way repeated measures ANOVA by time and treatment using SAS PROC MIXED software (SAS Institutes Inc, Cary, N.C.). Treatment groups are compared with the specified control group at each time point.

BxPC-3 xenograft = assay: BxPC-3 pancreatic cancer xenograft model; assay type: in vivo, mouse; settings: vs control hIgG4-Lys-ADC
Experimental: as §3
(§4) MET-ADCs and control hIgG4-MMAE may be prepared in Phosphate Buffered Saline (PBS) prior to dose. Tumor size may be determined by caliper measurements. […] Log volume data can be analyzed with two-way repeated measures ANOVA by time and treatment using SAS PROC MIXED software (SAS Institutes Inc, Cary, N.C.). […]

Calu-6 xenograft = assay: Calu-6 non-small-cell-lung cancer xenograft model; assay type: in vivo, mouse
Experimental: as §3, §4

Question: Which results are given for “MET-ADC#1: emibetuzumab lysine-conjugated via (2,5-dioxopyrrolidin-1-yl) 2-azidoacetate and Octyne-β-Glucn-MMAE”?
Answer: Sensitive/ Resistant (Aspc-1): S; cell killing activity in LS411N cells (LS411N; LS411N (BRAF, PIK3) colon cancer cells): killed; Sensitive/ Resistant (LS411N; LS411N, Colorectal Ca): S; Sensitive/ Resistant (Caco-2): R; Sensitive/ Resistant (H441): S; Sensitive/ Resistant (Cal27): S; Sensitive/ Resistant (RPTEC): R; Observation (efficacy in HT-29 mouse xenograft) [1]: Tumor regression^; Observation (efficacy in HT-29 mouse xenograft) ([1]; listed as MET-ADC #1): far superior efficacy; anti-tumor activity (BxPC-3 xenograft): dramatic anti-tumor activity; antitumor efficacy (Calu-6 xenograft): initial tumor regression and stable disease status
